Test results: PMC10827914 (Cellular and Molecular Life Sciences: CMLS, 2024)

Legend:
[1] = tested on: membrane CD13 expressed by HUVEC; assay: Competitive binding of anti-CD13 mAb WM15 to HUVEC by flow cytometry; design: species or system human
Method: HUVEC were seeded in 96-well U-bottom polystyrene microtiter plates at a density of 2 × 10^5 cells in 100 µL DPBS supplemented with 5% normal human serum (NHS) and mixed with a mixture of peptide G4 ranging from 0 to 10 µM and mAb WM15 (0 or 0.13 nM). The chromogranin A429-439 peptide fragment (CgA429-439) was used instead of G4 as a control. After 1 h of incubation at 4 °C, the cells were washed and resuspended in 100 µL of DPBS containing 5% NHS and 1 µg/mL of FITC-labeled goat anti-mouse IgG secondary antibody. Cells were subsequently incubated for 1 h at 4 °C, washed, and analyzed by flow cytometry. All flow cytometry data were collected on a CytoFLEX S flow cytometer (Beckman Coulter) and analyzed using FlowJo software 10 (BD BioScience).
Fig. 2 G4 recognizes soluble forms of CD13, with higher affinity and selectivity than bestatin, and the membrane forms expressed on the surface of HUVEC cells. A Inhibitory effects of G4 and bestatin on the enzymatic activities of different aminopeptidases (rCD13, APA, and APB). Various amounts of G4 or bestatin were incubated with rCD13 (0.2 µg/mL in 60 mM Tris–HCl pH 7.4), APA (0.2 µg/mL in 60 mM Tris–HCl pH 7.4, 50 mM calcium chloride, 200 mM sodium chloride) or APB (0.2 µg/mL in 60 mM Tris–HCl pH 7.4, 100 mM potassium chloride) and the corresponding substrates at 0.1 mM (L-alanine-7-amido-4-methylcoumarin for rCD13, L-glutamic acid γ-(7-amido-4-methylcoumarin) for APA, and L-arginine-7-amido-4-methylcoumarin for APB). The mixtures were incubated for 30 min at 37 °C, and the cleavage of each substrate was monitored by measuring the fluorescence of methylcoumarin (λex 341 nm; λem 441 nm) using an Infinite 200 PRO plate reader (Tecan). Three independent experiments were performed for each enzyme. […] Substrate cleavage by sCD13 dissociated from mAb WM15 was then monitored by measuring the absorbance at 405 nm in each well using a plate reader (Bio-Rad). […] After incubation for 60 min at 4 °C, the cells were washed and analyzed by flow cytometry. Data are expressed as the percentage of counts vs. fluorescence intensity units […]

[2] = tested on: HUVEC; assay: Cytotoxicity assay on adherent and non-adherent HUVEC; assay type: cell-based, human; details: adherent and non-adherent cells, concentrations lower than 100 pg/ml, 24 h, MTT
Method: The supernatant was removed using a Pasteur pipet connected to a vacuum pump, and 200 µL of dimethyl sulfoxide was then added to each well to dissolve the formazan crystals. The absorbance at 570 nm was then read using a microtiter plate reader.
The cytotoxicity assay with cell in suspension was carried out following the same protocol except that the overnight incubation of the microtiter plate after cell plating was omitted.

VGCARRYCS-TNF [G4-TNF, recombinant murine TNF fused to the C-terminus of G4]
Competition of mAb WM15 binding to HUVEC (in words) ([1]; Fig. 4C and 4D): competed the binding of mAb WM15 to endothelial cells | Competition of mAb WM15 binding to HUVEC (in words) ([1]; competitor 5 µM, mAb WM15 0.13 nM, 60 min, 4 °C, Supplementary Fig. S4D): competed with the binding of mAb WM15 (anti-CD13) to HUVEC to an extent similar to that observed with G4 | Cytotoxic effects on HUVEC (in words) [2]: No or minimal cytotoxic effects
